Results: US9241936B2, “Use of rupatadine in the manufacture of pharmaceutical composition for treating chronic obstructive pulmonary disease” (BEIJING WEIFENG YIMIN BIO-TECHNOLOGY LIMITED COMPANY, priority 2012, dated 2016)
“Also recorded” adds a separate entry of the source. Like-named read-outs stand apart in the source and are kept apart here.

Assays:
histamine or PAF [1] = conditions: cited from earlier work; for inhibition of blister: dogs, blister by subcutaneous histamine or PAF, rupatadine 0.3-10 mg/kg, oral administration
histamine or PAF [2] = conditions: cited from earlier work
[3] = cited from earlier work
PAF [4] = conditions: whole blood of dogs; read-out: IC50 of platelet aggregation induced by PAF; cited from earlier work
[5] = test system: patients suffering seasonal or perennial allergic rhinitis; conditions: cited from earlier work
PAF [6] = conditions: read-out: IC50 of platelet aggregation induced by PAF, cited from earlier work
histamine H1 receptors [7] = conditions: cited from earlier work
[8] = test system: rats, Guinea pigs and dogs; conditions: cited from earlier work
macaque = conditions: 10 mg/Kg; cited from earlier work
[9] = test system: TLR4 mutant C3H/HeJ mice with emphysema; test: pathological evaluation (HE staining) of mice with emphysema induced by TLR4 mutant; type: in vivo; conditions: i.g. once a day for 4 weeks
From the text: Animals for experiment: C3H/HeN wild type mice on SPF level were purchased from Beijing Vitalriver Experimental Animals Limited Company. TLR4 mutant C3H/HeJ mice were purchased from Institute of model animals, Nanjing University.
Method: Fed the SPF mice and the TLR4 mutant mice in experimental animal center of Institute of pharmaceutics research, Chinese academy of medical sciences. Provide free diet under constant temperature and humidity. The mice were killed until they were 3 months old.
Therapy: Grouping and feeding animal models with medicaments.
HE staining method is also named Hematoxylin-Eosin staining Hematoxylin dye liquor is alkaline, and mainly colors intranuclear chromatin and intracytoplasmic ribosome into bluish violet; Eosin is acidic dye, and mainly colors the components in cytoplasm and extracellular matrix.
The lung tissues on the right lower lobe was cut, fixed by 4 wt % paraformaldehyde and then embedded by paraffin. The largest cross-section of the paraffin embedding the lung tissue was stained by HE staining method, and the result was shown in FIG. 4.

[10] = test system: pulmonary fibrosis induced by Bleomycin of mammals; conditions: cited from earlier work
[11] = test system: smoking-induced COPD mice; test: amount of inflammatory cytokines in bronchoalveolar lavage fluid of smoking-induced COPD mice (ELISA); type: in vivo, C57BL/6 mice
Experimental: Main agents and animals for experiments: Cigarettes used in the experiment, type 3R4F, were purchased from Tobacco Research Center, University of Kentucky, USA. C57BL/6 mice on level SPF used in the experiment (male, aged 6-8 weeks, 16-18 g) were purchased from Institute of Animal, Chinese academy of medical sciences. […] C57BL/6 mice were put in a smoke box and 5 cigarettes were inhaled without filter tip each time. The ratio of smoke to air was 1:6, and the whole flow rate of gas was 150 ml/min. Smoking experiment was conducted 4 times a day, 30 minutes for each time and last for 24 weeks. Therapy: grouping and feeding animal models with medicaments. The groups were as table 1: [table] The mice were dissected at neck and the […] exposed for intubation. […] The lavage solution was recycled and centrifuged at 1500 r for 10 minutes at 4° C. The supernate was recycled and kept at -20° C. for the test. 100 μl supernate was taken to conduct ELISA examination, and commercial available ELISA kit was used to test the amount of inflammatory cytokines. It can be seen from FIG. 2, compared with the sham-operation group, the content of IL-2 (FIG. 2A), IL-4 (FIG. 2C), IL-17 (FIG. 2D) increased remarkably in lungs of COPD mice.

mouse = conditions: 1000 mg/Kg; cited from earlier work
[12] = test system: smoking-induced COPD mice; test: pathological evaluation (HE staining) of lung tissue of smoking-induced COPD mice; type: in vivo, C57BL/6 mice; conditions: 6 mg/kg i.g. once a day for 4 weeks
Experimental: Main agents and animals for experiments: Cigarettes used in the experiment, type 3R4F, were purchased from Tobacco Research Center, University of Kentucky, USA. C57BL/6 mice on level SPF used in the experiment (male, aged 6-8 weeks, 16-18 g) were purchased from Institute of Animal, Chinese academy of medical sciences. […] C57BL/6 mice were put in a smoke box and 5 cigarettes were inhaled without filter tip each time. The ratio of smoke to air was 1:6, and the whole flow rate of gas was 150 ml/min. Smoking experiment was conducted 4 times a day, 30 minutes for each time and last for 24 weeks. Therapy: grouping and feeding animal models with medicaments. The groups were as table 1: [table] HE staining method is also named Hematoxylin-Eosin staining method. Hematoxylin dye liquor is alkaline, and mainly colors intranuclear chromatin and intracytoplasmic ribosome into bluish violet. Eosin is acidic dye, and mainly colors the components in cytoplasm and extracellular matrix. The lung tissues on the right lower lobe was cut, fixed by 4 wt % paraformaldehyde and then embedded by paraffin. The largest cross-section of the paraffin embedding lung tissue was stained by HE staining method, and the result was shown in FIG. 3.

mastocytes = conditions: cited from earlier work
[13] = test system: smoking-induced COPD mice; test: amount of inflammatory cells in bronchoalveolar lavage fluid of smoking-induced COPD mice; type: in vivo, C57BL/6 mice
From the text: Main agents and animals for experiments: Cigarettes used in the experiment, type 3R4F, were purchased from Tobacco Research Center, University of Kentucky, USA. C57BL/6 mice on level SPF used in the experiment (male, aged 6-8 weeks, 16-18 g) were purchased from Institute of Animal, Chinese academy of medical sciences.
Preparation of COPD animal model: C57BL/6 mice were put in a smoke box and 5 cigarettes were inhaled without filter tip each time. The ratio of smoke to air was 1:6, and the whole flow rate of gas was 150 ml/min. Smoking experiment was conducted 4 times a day, 30 minutes for each time and last for 24 weeks.
Therapy: grouping and feeding animal models with medicaments. The groups were as table 1:
The mice were dissected at neck and the weasand was exposed for intubation. The lavage amount of PBS was 0.8 ml and the lavage was conducted 3-5 times. The lavage solution was recycled and centrifuged at 1500 r for 10 minutes at 4° C. The supernate was recycled and kept at −20° C. for the test of cytokines.
Cells were reselected and precipitated by 1 ml 1% BSA in PBS. 10 μl resuspension solution was taken for calculating the amount of cells and the hematology analyzer was used for analysis. It can be seen from FIG. 1, compared with the sham-operation group, the total number of hemameba (FIG. 1A), monocyte (FIG. 1B), neutrophile granulocyte (FIG. 1C), lymphocyte (FIG. 1D), basophil (FIG. 1E), and eosinophils (FIG. 1F) in bronchoalveolar lavage fluid of smoking-induced COPD mice increased extremely remarkably.

histamine H1 receptors [14] = molecular target: histamine H1 receptors (Cavia porcellus, UniProt P31389); conditions: cited from earlier work
histamine H1 receptors (Cavia porcellus, UniProt P31389), sequence (P31389 whole entry): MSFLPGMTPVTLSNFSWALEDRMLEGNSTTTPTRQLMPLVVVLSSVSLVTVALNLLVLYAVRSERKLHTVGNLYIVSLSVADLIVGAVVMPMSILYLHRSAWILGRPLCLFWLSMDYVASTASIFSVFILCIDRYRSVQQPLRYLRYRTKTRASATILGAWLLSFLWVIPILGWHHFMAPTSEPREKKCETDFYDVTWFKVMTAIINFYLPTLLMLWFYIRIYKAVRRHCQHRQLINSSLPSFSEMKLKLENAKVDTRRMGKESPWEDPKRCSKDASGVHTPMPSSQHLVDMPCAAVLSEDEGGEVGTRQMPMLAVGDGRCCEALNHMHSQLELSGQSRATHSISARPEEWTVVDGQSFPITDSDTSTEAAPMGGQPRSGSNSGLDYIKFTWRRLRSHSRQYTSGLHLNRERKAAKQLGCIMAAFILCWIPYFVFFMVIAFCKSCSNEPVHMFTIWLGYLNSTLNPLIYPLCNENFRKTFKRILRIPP

eosinophil = conditions: cited from earlier work
[15] = 6 mg/Kg rupatadine treated group
[16] = bronchoalveolar lavage fluid, ELISA, 6 mg/kg i.g. once a day for 4 weeks after modeling
[17] = bronchoalveolar lavage fluid, 6 mg/kg i.g. once a day for 4 weeks after modeling

Compound: O=C(O)COCCN1CCN(C(c2ccccc2)c2ccc(Cl)cc2)CC1 (stereo not shown) [cetirizine]
- inhibition of blister (histamine or PAF [1]): can only inhibit the blister induced by histamine

Compound: CCOC(=O)N1CCC(=C2c3ccc(Cl)cc3CCc3cccnc32)CC1 [loratadine]
- inhibition of blister (histamine or PAF [1]): can only inhibit the blister induced by histamine

Compound: Cc1cncc(CN2CCC(=C3c4ccc(Cl)cc4CCc4cccnc43)CC2)c1 [rupatadine, Rupatadine]
- inhibition of conjunctivitis (histamine or PAF [2]; Guinea pig, induced by histamine or PAF): can inhibit conjunctivitis induced by histamine or PAF
- therapy effect of eye drops, times better than loratadine (histamine or PAF [2]; applied to eye drops, versus loratadine): 10 times
- time for blood concentration to reach the peak ([3]; after intaking tablet): 1 h
- time for blood concentration to reach the peak ([3]; after intaking the capsule): 1.5 h
- half-life period ([3]; as stated in b6): 5.9 h
- half-life period ([3]; oral administration): 12 h
- IC50 (PAF [4]): 290 nM
- alleviation of symptoms relative to placebo ([5]; 2.5 mg, 5 mg, 10 mg, 20 mg per day, two weeks): can alleviate the symptoms more effectively than placebo
- effects compared with loratadine ([5]; 10 mg or 20 mg per day rupatadine vs 10 mg per day loratadine, two weeks, seasonal allergic rhinitis): better effects than intaking 10 mg per day loratadine
- side effects on central nervous system ([5]; 10 mg per day, compared with cetirizine): little side effects on central nervous system
- therapeutic effects compared with ebastine ([5]; 10 mg rupatadine vs 10 mg ebastine daily for 2 weeks, seasonal allergic rhinitis): better therapeutic effects than ebastine
- alleviation of symptoms of seasonal allergic rhinitis compared with loratadine and ebastine ([5]; same dosage): can alleviate the symptoms of seasonal allergic rhinitis more than loratadine and ebastine
- alleviation of nasal and optical symptoms relative to placebo ([5]; seasonal allergic rhinitis patients, 10 mg and 20 mg per day, two weeks): much more alleviated
- IC50 (PAF [6]; platelet rich plasma (of rabbits)): 2900 nM
- IC50 (PAF [6]): 200 nM
- affinity to histamine H1 receptors (histamine H1 receptors [7]): good affinity
- selectivity to peripheral nervous receptors H1 (histamine H1 receptors [7]): highly selective
- arrhythmia [8]: nor would it lead to arrhythmia
- duration of effect (histamine or PAF [1]; after intake of rupatadine): 24 h
- time of best potency after intake (histamine or PAF [1]; after intake of rupatadine): 4 h
- inhibition of blister (histamine or PAF [1]): can effectively inhibit blister
- period of QTC and QRS (macaque): would not be extended
- lung tissue pathology, emphysema / structure of alveoli (HE staining) [9]: could effectively recover normal structure of alveoli
- effect on pulmonary fibrosis induced by Bleomycin ([10]; in vivo): can convert the pulmonary fibrosis induced by Bleomycin
- lethal rate caused by pulmonary fibrosis induced by Bleomycin ([10]; mammals): declining the lethal rate
- content of IFN-γ [11, 15]: did not affect the content of IFN-γ
- content of various inflammatory cytokines in lungs of COPD mice [11, 15]: could reduce the content of various inflammatory cytokines
- IFN-γ [11, 16]: 26.28 pg/mL
- IL-2 [11, 16]: 6.71 pg/mL
- IL-4 [11, 16]: 6.54 pg/mL
- IL-17 [11, 16]: 35.53 pg/mL
- period of QTC and QRS (mouse): would not be extended
- lung tissue pathology, structure of alveoli (HE staining) [12]: could effectively recover normal structure of alveoli
- inhibition of degranulation of mastocytes (mastocytes): can inhibit
- amount of various inflammatory cells in bronchoalveolar lavage fluid compared to the model group ([13]; 6 mg/kg rupatadine treated group): could remarkably reduce the amount of various inflammatory cells
- Basophil [13, 17]: 24.816 * 10^4 number/mL
- Eosinophils [13, 17]: 34.692 * 10^4 number/mL
- Lymphocyte [13, 17]: 32.694 * 10^5 number/mL
- Monocyte [13, 17]: 49.504 * 10^5 number/mL
- Neutrophile granulocyte [13, 17]: 33.864 * 10^5 number/mL
- total hemameba [13, 17]: 13.69 * 10^6 number/mL
- anti-histamine activity compared with other medicaments (histamine H1 receptors [14]; in vitro): stronger anti-histamine activity than terfenadine, loratadine, cetirizine, hydroxyzine, diphenhydramine; also recorded: the same as desloratadine
- IC50 (histamine H1 receptors [14]; read-out: anti-histamine activity IC50, ileum of Guinea pig in vitro): 3.5 nM
- anti-histamine activity, times stronger than loratadine (histamine H1 receptors [14]; versus loratadine): 80 times
- anti-histamine activity, times stronger than other anti-histamine medicaments (histamine H1 receptors [14]; versus other anti-histamine medicaments): 100 times
- inhibition of chemotaxis of eosinophil (eosinophil): can inhibit

Compound: IL-17A: IL-17A used in positive control group, purchased from R&D Company
- lung tissue pathology, emphysema / structure of alveoli (HE staining) [9]: could effectively inhibit the further development of emphysema in mice
